IC50 data for 58 compounds are collected here from US7776862B2, “Pyridyl and phenyl substituted piperazine-piperidines with CXCR3 antagonist activity” (Schering Corporation, priority 2005, dated 2010).

A value given as a limit tells only on which side of the number the result lay.

The first test deals with T1, human CXCR3 (N-delta 4) (Homo sapiens, UniProt P49682).
T1 construct: CD8 leader; Flag tag; expressed in transfected cells; membranes used
T1 sequence (P49682 5-368 limits assumed): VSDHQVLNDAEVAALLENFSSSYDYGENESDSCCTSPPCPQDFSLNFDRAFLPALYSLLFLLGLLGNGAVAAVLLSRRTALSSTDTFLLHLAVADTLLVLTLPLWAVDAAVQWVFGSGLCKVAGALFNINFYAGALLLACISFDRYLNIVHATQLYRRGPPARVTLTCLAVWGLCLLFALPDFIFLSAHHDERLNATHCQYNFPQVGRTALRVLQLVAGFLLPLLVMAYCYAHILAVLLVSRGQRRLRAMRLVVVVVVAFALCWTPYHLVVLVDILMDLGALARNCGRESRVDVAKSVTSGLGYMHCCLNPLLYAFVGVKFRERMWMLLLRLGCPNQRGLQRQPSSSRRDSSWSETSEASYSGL
In words: Human CXCR3 (N-delta 4) scintillation proximity assay (SPA), [125I] IP-10 binding. As to conditions: IC50 rating; Ba/F3-hCXCR3 (N-delta 4) membranes, 25 pM [125I] IP-10. Put shortly: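 IP-10 and compound titrations added together. The receptor source was SPA beads bearing membranes from Ba/F3 cells transfected with human CXCR3 (N-delta 4) carrying a CD8 leader and Flag tag.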
Turning to `CC1(N2CCN(c3ncc(C(=O)NCc4ccc(Cl)c(Cl)c4)cc3Cl)CC2)CCN(Cc2ccc(Cl)cc2)CC1` [compound 206], the IC50 fell in the range of 25 to 100 nM. On the same count and under the same terms, next, `CC1(N2CCN(c3ncc(C(=O)NCc4ccc(F)c(F)c4)cc3Cl)CC2)CCN(Cc2ccc(Cl)cc2)CC1` [compound 207]: greater than 100 nM; `CCNC(=O)c1cnc(N2CCN(C3(CC)CCN(Cc4ccc(Cl)cc4)CC3)CC2)c(Cl)c1` [compound 208]: greater than 100 nM. The same measure, in the same setting: next, `CCNC(=O)c1cnc(N2CCN(C3CCN(Cc4ccc(Cl)cc4)CC3C)[C@@H](C)C2)c(Cl)c1` (some centres unmarked) [compound 209]: less than 25 nM. `CCNC(=O)c1cnc(N2CCN(C3CCN(Cc4ccc(Cl)cc4)CC3)[C@@H](C(C)C)C2)c(Cl)c1` [compound 210] gave a concentration for half-maximal inhibition (IC50) of less than 25 nM. The same measure, in the same setting: for `CCNC(=O)c1cnc(N2CCN(C3CCN(C(=O)c4ccc(Cl)cc4)CC3)[C@@H](C(C)C)C2)c(Cl)c1` [compound 211] the value was greater than 100 nM; for `CCNC(=O)c1cnc(N2CCN(C3CCN(Cc4ccc(Cl)cc4F)CC3)[C@@H](CC)C2)c(Cl)c1` [compound 212], less than 25 nM; for `CCNC(=O)c1cnc(N2CCN(C3CCN(Cc4ccc(Cl)cc4)CC3)[C@@H](CC)C2)c(Cl)c1` [compound 213], less than 25 nM. `CCNC(=O)c1cnc(N2C[C@H](CC)N(C3CCN(Cc4ccc(Cl)cc4)CC3)C[C@H]2C)c(Cl)c1` [compound 214] gave an IC50 of less than 25 nM. In turn, `CC[C@H]1CN(c2ncc(C(=O)NC3CC3)cc2Cl)CCN1C1CCN(Cc2ccc(Cl)cc2F)CC1` [compound 215] had an IC50 of less than 25 nM. Still for that read-out and setting: for `CC[C@H]1CN(c2ncc(C(=O)NC(C)C)cc2Cl)CCN1C1CCN(Cc2ccc(Cl)cc2)CC1` [compound 216] the value was less than 25 nM; for `CCNC(=O)c1cnc(N2C[C@H](CC)N(C3CCN(Cc4ccc(Cl)cc4F)CC3)C[C@H]2C)c(Cl)c1` [compound 217], less than 25 nM. The same measure, in the same setting: next, `CCNC(=O)c1cnc(N2CCN(C3CCN(Cc4ccc(I)cc4)CC3)[C@@H](CC)C2)c(Cl)c1` [compound 218]: less than 25 nM. Still for that read-out and setting: next, `CC[C@H]1CN(c2ncc(C(=O)NC)cc2Cl)CCN1C1CCN(Cc2ccc(Br)cc2F)CC1` [compound 219]: less than 25 nM. For the compound `CCNC(=O)c1cnc(N2CCN(C3CCN(Cc4ccc(Cl)cc4)C(C)C3)[C@@H](CC)C2)c(Cl)c1` (some centres unmarked) [compound 220], the 50% inhibitory concentration (IC50) was less than 25 nM. Still for that read-out and setting: for `CC[C@H]1CN(c2ncc(C(=O)NCc3ccc(F)c(F)c3)cc2Cl)CCN1C1CCN(Cc2ccc(Cl)cc2)CC1` [compound 221] the value was less than 25 nM. The compound `C[C@H]1CN(c2ncc(C(=O)NCc3ccc(F)c(F)c3)cc2Br)CCN1C1CCN(Cc2ccc(Cl)cc2)CC1` [compound 222] yielded a concentration for half-maximal inhibition (IC50) of less than 25 nM. Still for that read-out and setting: next, `CC[C@H]1CN(c2ncc(C(=O)NC)cc2Cl)CCN1C1CCN(Cc2ccc(Cl)cc2)CC1` [compound 223]: less than 25 nM; `CC[C@H]1CN(c2ncc(C(=O)NC)cc2Cl)CCN1C1CCN(Cc2ccc(Cl)cc2F)CC1` [compound 224]: less than 25 nM; `C[C@H]1CN(c2ncc(C(=O)NCC3CCCCC3)cc2Br)CCN1C1CCN(Cc2ccc(Cl)cc2)CC1` [compound 225]: less than 25 nM.

Regarding `C[C@H]1CN(c2ncc(C(=O)NCc3ccc(F)c(F)c3)cc2Cl)CCN1C1CCN(Cc2ccc(Cl)cc2)CC1` [compound 226], the IC50 was less than 25 nM.

As for `CCNC(=O)c1cnc(N2CCN(C3CCN(Cc4ccc(Cl)cc4)CC3)[C@@H](C)C2)c(Cl)c1` [compound 227], the half-maximal inhibitory concentration (IC50) was less than 25 nM. As for `C[C@H]1CN(c2ncc(C(=O)NCC3CCCCC3)cc2Cl)CCN1C1CCN(Cc2ccc(Cl)cc2)CC1` [compound 228], the 50% inhibitory concentration (IC50) is less than 25 nM. On the same count and under the same terms, next, `CCNC(=O)c1cc(Cl)c(N2CCN(C3CCN(Cc4ccc(Cl)cc4F)CC3)[C@@H](CC)C2)[n+]([O-])c1` [compound 229]: less than 25 nM. As for `C[C@H]1CN(c2ncc(C(=O)NCc3ccc(Cl)c(Cl)c3)cc2Cl)CCN1C1CCN(Cc2ccc(C#N)cc2)CC1` [compound 230], the IC50 was less than 25 nM. On the same count and under the same terms, next, `CCNC(=O)c1cnc(N2CCN(C3CCN([C@H](C)c4ccc(Cl)cc4)CC3)[C@@H](C)C2)c(Cl)c1` [compound 231]: less than 25 nM; `CNC(=O)c1cnc(N2CCN(C3CCN([C@H](C)c4ccc(Cl)cc4)CC3)[C@@H](C)C2)c(Cl)c1` [compound 232]: less than 25 nM. In turn, `C[C@H]1CN(c2ncc(C(=O)Nc3ccon3)cc2Cl)CCN1C1CCN(Cc2ccc(Cl)cc2)CC1` [compound 233] yielded a half-maximal inhibitory concentration (IC50) of less than 25 nM. On the same count and under the same terms, next, `C[C@H]1CN(c2ncc(C(=O)NCc3ccc(F)c(F)c3)cc2Cl)CCN1C1CCN(Cc2ccc(C#N)cc2)CC1` [compound 234]: less than 25 nM. The compound `C[C@@H]1CN(c2ncc(C(=O)NCC3CCCCC3)cc2Cl)CCN1C1CCN(Cc2ccc(C#N)cc2)CC1` [compound 235] registered a 50% inhibitory concentration (IC50) of less than 25 nM. Same read-out and setting: next, `CC(C)NC(=O)c1cnc(N2CCN(C3CCN(Cc4ccc(Cl)cc4)CC3)[C@@H](C)C2)c(Cl)c1` [compound 236]: less than 25 nM; `CNC(=O)c1cnc(N2CCN(C3CCN(Cc4ccc(Cl)cc4)CC3)[C@@H](C)C2)c(Br)c1` [compound 237]: less than 25 nM. The same measure, in the same setting: for `CCNC(=O)c1cnc(N2CCN(C3CCN(C(C)c4ccc(Cl)cc4)CC3)[C@@H](C)C2)c(Cl)c1` (some centres unmarked) [compound 239] the value was less than 25 nM; for `CNC(=O)c1cnc(N2CCN(C3CCN(Cc4ccc(Br)cc4F)CC3)[C@@H](C)C2)c(Cl)c1` [compound 240], less than 25 nM; for `CNC(=O)c1cnc(N2CCN(C3CCN(Cc4ccc(Cl)cc4)CC3)[C@@H](C)C2)c(Cl)c1` [compound 241], less than 25 nM. On the same count and under the same terms, for `C[C@@H]1CN(c2ncc(C(=O)NCC3CCCCC3)cc2Cl)CCN1C1CCN(Cc2ccc(Cl)cc2)CC1` [compound 242] the value was less than 25 nM. For `CNC(=O)c1cnc(N2CCN(C3CCN(C(C)c4ccc(Cl)cc4)CC3)[C@@H](C)C2)c(Cl)c1` (some centres unmarked) [compound 243], the IC50 was less than 25 nM.

As for `CC[C@H]1CN(c2ncc(C(N)=O)cc2Cl)CCN1C1CCN(Cc2ccc(Cl)cc2F)CC1` [compound 244], the half-inhibitory concentration (IC50) was less than 25 nM. Same read-out and setting: next, `CC[C@H]1CN(c2ncc(C(=O)NC)cc2Cl)CCN1C1CCN(C(=O)c2ccc(Br)cc2)CC1` [compound 245]: less than 25 nM. Compound `CCNC(=O)c1cnc(N2CCN(C3CCN(C(=O)c4ccc(Cl)cc4)CC3)[C@@H](CC)C2)c(Cl)c1` [compound 246] yielded a concentration for half-maximal inhibition (IC50) of less than 25 nM. Still for that read-out and setting: next, `C[C@@H](NC(=O)c1cnc(N2CCN(C3CCN(Cc4ccc(Cl)cc4)CC3)[C@@H](C)C2)c(Cl)c1)C1CCCCC1` [compound 247]: less than 25 nM. Still for that read-out and setting: next, `C[C@H]1CN(c2ncc(C(=O)NCc3ccc(F)c(F)c3)cc2Cl)CCN1C1CCN(C(=O)c2ccc(C#N)cc2)CC1` [compound 248]: less than 25 nM. As for `CCNC(=O)c1cnc(N2CCN(C3CCN(Cc4ccc(Cl)cc4F)CC3)C(C3CC3)C2)c(Cl)c1` (centres unmarked) [compound 249], the IC50 is less than 25 nM. On the same count and under the same terms, for `C[C@@H]1CN(c2ncc(C(=O)NCC3CCCCC3)cc2Cl)CCN1C1CCN(C(=O)c2ccc(C#N)cc2)CC1` [compound 250] the value was less than 25 nM; for `CCNC(=O)c1cnc(N2CCN(C3CCN(Cc4ccc(Cl)cc4F)CC3)[C@@H](C)C2)c(Cl)c1` [compound 251], less than 25 nM; for `CNC(=O)c1cnc(N2CCN(C3CCN(Cc4ccc(Cl)cc4)C(C)C3)[C@@H](C)C2)c(Cl)c1` (some centres unmarked) [compound 252], less than 25 nM.

With `O=C(NCc1ccc(F)c(F)c1)c1cnc(N2CCN(C3CCN(Cc4ccc(Cl)cc4)CC3)CC2)c(Br)c1` [compound 253], the IC50 was less than 25 nM. Same read-out and setting: next, `C[C@@H]1CN(c2ncc(C(=O)NCc3ccc(F)c(F)c3)cc2Cl)CCN1C1CCN(Cc2ccc(Cl)cc2)CC1` [compound 254]: less than 25 nM. The same measure, in the same setting: next, `CNC(=O)c1cnc(N2CCN(C3CCN(Cc4ccc(Cl)cc4Cl)CC3)[C@@H](C)C2)c(Cl)c1` [compound 255]: less than 25 nM. The same measure, in the same setting: next, `CCNC(=O)c1cnc(N2C[C@H](CC)N(C3CCN(C(=O)c4ccc(Cl)cc4)CC3)C[C@H]2C)c(Cl)c1` [compound 256]: less than 25 nM; `CC[C@H]1CN(c2ncc(C(=O)NCCO)cc2Cl)CCN1C1CCN(C(CO)c2ccc(Cl)cc2)CC1` (some centres unmarked) [compound 257]: less than 25 nM. Compound `CNC(=O)c1cnc(N2CCN(C3CCN(Cc4ccc(Cl)cc4F)CC3)[C@@H](C)C2)c(Cl)c1` [compound 258] returned a half-inhibitory concentration (IC50) of less than 25 nM. On to `CC[C@H]1CN(c2ncc(C(=O)NC)cc2Cl)CCN1C1CCN(C(=O)c2ccc(Cl)cc2)CC1` [compound 259], for which the IC50 is less than 25 nM.

With `CCNC(=O)c1cnc(N2CCN(C3CCN(C(=O)c4ccc(Cl)cc4F)CC3)[C@@H](CC)C2)c(Cl)c1` [compound 260], the half-inhibitory concentration (IC50) is less than 25 nM. The compound `C[C@H]1CN(c2ncc(C(=O)Nc3ccc(F)c(F)c3)cc2Cl)CCN1C1CCN(Cc2ccc(Cl)cc2)CC1` [compound 261] came in with a half-maximal inhibitory concentration (IC50) of less than 25 nM.

The compound `CCNC(=O)c1cnc(N2CCN(C3CCN(C(=O)c4ccc(-n5cccc5)cc4)CC3)[C@@H](CC)C2)c(Cl)c1` [compound 262] had a 50% inhibitory concentration (IC50) of less than 25 nM. On the same count and under the same terms, next, `CCNC(=O)c1cnc(N2C[C@H](C)N(C3CCN(Cc4ccc(Cl)cc4F)CC3)C[C@H]2C)c(Cl)c1` [compound 263]: less than 25 nM; `C[C@@H]1CN(c2ncc(C(=O)NCc3ccc(Cl)c(Cl)c3)cc2Cl)CCN1C1CCN(Cc2ccc(Cl)cc2)CC1` [compound 264]: less than 25 nM.

Staying with this test, now noted: value given in text as example.
As to `CCNC(=O)c1cnc(N2CCN(C3CCN(Cc4ccc(Cl)cc4F)CC3)[C@@H](CC)C2)c(Cl)c1` [compound 212], the IC50 was 0.2 nM.
